# Data from BindingDB's records for patent US20240246935 (Plexium, Inc., 2024).
# Target: Protein cereblon (Homo sapiens, UniProt Q96SW2)
# Test: Cereblon (CRBN) Target Engagement
# Description: Cereblon target engagement was monitored by Bioluminescence Resonance Energy Transfer (BRET) in transfected HEK-293T cells using the NanoBRET TE Intracellular E3 Ligase Assay (Promega). Briefly, 384-well plates (white opaque plates, Corning 3574, low binding surface) were seeded with transfected HEK-293T cells (38 uL/well). 2 uL of 10 uM CRBN tracer (diluted 1:5 in Tracer Dilution Buffer) was added to each well. Plates were centrifuged at 320 g for 1 min at room temperature. Test compounds were added in a 11-point dilution series (typically […]) using a TECAN D300e Digital Dispenser. Plates were shaken for 2 minutes on a microplate shaker to mix compounds. Plates were centrifuged at 320 g for 1 min at room temperature, and subsequently incubated for 2 hours at 37 C.After incubation, plates were allowed to cool to room temperature for 15 minutes. 20 uL of 3 Complete NanoBRET Nano-Glo Substrate plus Inhibitor Solution (Promega, 1:166 Substrate and 1:500 dilution of Extracellular NanoLuc Inhibitor diluted in Opti-MEM) were added to each well. Plates were incubated with shaking at room temperature for 3 minutes covered with foil. Plates were read on a CLARIOstar microplate reader (BMG LabTech), measuring at 450 nm (donor emission) and 610 nm (acceptor emission). The IC50 values were determined by regression to best fit four-parameter logistic curves using GraphPad Prism.
# Sequence of Protein cereblon (Q96SW2 whole entry): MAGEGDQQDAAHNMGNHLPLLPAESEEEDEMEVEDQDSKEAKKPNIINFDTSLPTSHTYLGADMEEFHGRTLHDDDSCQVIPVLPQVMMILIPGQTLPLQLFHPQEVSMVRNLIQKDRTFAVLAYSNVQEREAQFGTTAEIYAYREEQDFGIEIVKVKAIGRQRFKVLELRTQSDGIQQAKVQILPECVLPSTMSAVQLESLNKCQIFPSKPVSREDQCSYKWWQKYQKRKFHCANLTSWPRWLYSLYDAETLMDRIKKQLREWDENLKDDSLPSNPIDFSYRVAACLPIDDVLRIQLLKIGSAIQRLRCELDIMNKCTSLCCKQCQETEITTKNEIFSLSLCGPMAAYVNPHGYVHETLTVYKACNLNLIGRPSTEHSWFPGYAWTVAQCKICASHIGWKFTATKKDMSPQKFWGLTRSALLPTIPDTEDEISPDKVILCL
row,SMILES,EC50 [nM]
1,"O=C1NC(=O)C2(N3Cc4cc(O[C@H]5CCC[C@@H]5N5CC(c6ccc(F)cc6Cl)C5)ccc4C3=O)CC1C2 [US20240246935, Example 86]",> 10000
2,"O=C1NC(=O)C2(N3Cc4cc(O[C@H]5CCC[C@@H]5N5CC(c6cccc(F)c6)C5)ccc4C3=O)CC1C2 [US20240246935, Example 87]",> 10000
3,"O=C1NC(=O)C2(N3Cc4cc(O[C@H]5CCC[C@@H]5N5CCC(c6ccccc6)C5)ccc4C3=O)CC1C2 (some centres not stated) [US20240246935, Example 107]",> 10000

# Compounds with a lower EC50, results first:
row,EC50 [nM],SMILES
1,6810,"O=C1NC(=O)C2(N3Cc4cc(O[C@H]5CCCC[C@@H]5N5CC(c6cccc(F)c6)C5)ccc4C3=O)CC1C2 [US20240246935, Example 89]"
2,30.2,"O=C1CCC(N2Cc3cc(O[C@H]4CCC[C@@H]4N4CC(c5cccc(F)c5)C4)ccc3C2=O)C(=O)N1 (some centres not stated) [US20240246935, Example 88]"
3,18,"O=C1CCC(N2Cc3cc(O[C@H]4CCC[C@@H]4N4CC(c5ccc(F)cc5Cl)C4)ccc3C2=O)C(=O)N1 (some centres not stated) [US20240246935, Example 104]"
4,15,"O=C1CCC(N2Cc3cc(O[C@H]4CCCC[C@@H]4N4CC(c5ccc(F)cc5Cl)C4)ccc3C2=O)C(=O)N1 (some centres not stated) [US20240246935, Example 103]"
